# Literature values as cited in patent publication US20030171388A1, “Cosmetic or dermatological cream composition, the preparation and the use thereof” (priority 2003, published 2003).
# Test system: liver cell cultures
smiles,measurement,value
"C[N+](C)(C)C[C@H](O)CC(=O)[O-] [L-carnitine, 3-carboxy-2-hydroxy-N,N,N-trimethyl-1-propanamium-hydroxide]",effect on the membrane potential of the mitochondrion,did not cause a loss in the membrane potential of the mitochondrion
same,prevention of cell deaths,able to prevent cell deaths
